Consider 61 molecules from the Kinase Knowledgebase extract (Sharma et al. 2016).

By GI50 is commonly meant the concentration giving 50% growth inhibition.

The assay deals with EGFR (Human), P00533 [Assessment of Proliferation in EGFR DelE746_A750 Mutant Expressing HCC827 Cells].
Sequence of EGFR (Human), P00533 [Assessment of Proliferation in EGFR DelE746_A750 Mutant Expressing HCC827 Cells] (P00533 whole entry, looked up, stated change not applied): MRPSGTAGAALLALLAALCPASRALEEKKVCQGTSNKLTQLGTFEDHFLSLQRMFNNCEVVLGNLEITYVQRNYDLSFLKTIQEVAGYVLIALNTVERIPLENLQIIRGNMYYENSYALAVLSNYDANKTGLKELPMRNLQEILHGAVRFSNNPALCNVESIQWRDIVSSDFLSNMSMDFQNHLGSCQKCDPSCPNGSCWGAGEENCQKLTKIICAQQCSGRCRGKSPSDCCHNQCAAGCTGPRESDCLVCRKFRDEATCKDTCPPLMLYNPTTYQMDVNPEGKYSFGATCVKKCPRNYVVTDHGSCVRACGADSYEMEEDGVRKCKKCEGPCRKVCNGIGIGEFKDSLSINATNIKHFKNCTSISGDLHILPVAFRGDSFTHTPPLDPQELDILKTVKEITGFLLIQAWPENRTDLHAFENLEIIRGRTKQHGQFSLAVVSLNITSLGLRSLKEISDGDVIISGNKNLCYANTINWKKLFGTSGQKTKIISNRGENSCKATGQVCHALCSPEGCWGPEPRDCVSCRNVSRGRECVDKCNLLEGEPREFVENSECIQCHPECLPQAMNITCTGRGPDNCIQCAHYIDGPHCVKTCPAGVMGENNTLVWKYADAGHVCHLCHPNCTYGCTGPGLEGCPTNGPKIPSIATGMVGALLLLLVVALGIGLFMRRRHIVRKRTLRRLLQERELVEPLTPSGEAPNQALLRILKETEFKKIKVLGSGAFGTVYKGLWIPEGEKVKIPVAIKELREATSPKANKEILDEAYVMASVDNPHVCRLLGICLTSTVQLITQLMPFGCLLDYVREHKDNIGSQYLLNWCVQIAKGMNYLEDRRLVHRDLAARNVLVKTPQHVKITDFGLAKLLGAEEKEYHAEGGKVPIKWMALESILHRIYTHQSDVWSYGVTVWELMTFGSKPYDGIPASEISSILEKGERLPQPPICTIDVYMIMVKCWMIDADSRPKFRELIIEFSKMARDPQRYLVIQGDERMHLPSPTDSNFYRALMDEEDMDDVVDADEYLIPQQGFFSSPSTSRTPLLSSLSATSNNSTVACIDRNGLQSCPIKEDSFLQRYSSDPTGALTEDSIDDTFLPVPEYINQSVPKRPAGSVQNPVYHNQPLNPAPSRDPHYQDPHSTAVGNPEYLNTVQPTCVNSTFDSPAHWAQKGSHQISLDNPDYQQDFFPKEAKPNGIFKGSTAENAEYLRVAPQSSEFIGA
In turn, `C=CC(=O)Nc1cccc(Oc2nc(Nc3ccc(N4CCN(C(=O)N5CCOCC5)CC4)cc3)nc3ccsc23)c1` showed a GI50 of at most 50 nM.

Molecule `C=CC(=O)Nc1cccc(Oc2nc(Nc3ccc(N4CCNCC4)cc3)nc3ccsc23)c1` returned a GI50 of at most 50 nM.

The molecule `C=CC(=O)Nc1cccc(Nc2nc(Nc3ccc(CN4CCCCC4)cc3OC)nc3ccsc23)c1` yielded a GI50 of 50 to 100 nM.

As to `C=CC(=O)Nc1cccc(Oc2nc(Nc3ccc(OC4CCN(CC)CC4)cc3)nc3ccsc23)c1`, the GI50 is at most 50 nM.

On to `C=CC(=O)Nc1cccc(Oc2nc(Nc3ccc(N4CCN(C5CCN(C)CC5)CC4)nc3)nc3ccsc23)c1`, for which the GI50 was at most 50 nM.

Turning to `C=CC(=O)Nc1cccc(Oc2nc(Nc3ccc(N4CCC(CN5CCCCC5)CC4)cc3)nc3ccsc23)c1`, the GI50 is at most 50 nM.

As to `C=CC(=O)Nc1cccc(Oc2nc(Nc3ccc(N4CCN(C)CC4)c(F)c3)nc3ccsc23)c1`, the GI50 is at most 50 nM.

In turn, `C=CC(=O)Nc1cccc(Oc2nc(Nc3ccc(CN4CCN(CC5CC5)CC4)cc3)nc3ccsc23)c1` came in with a GI50 of at most 50 nM.

`C=CC(=O)Nc1cccc(Oc2nc(Nc3ccc(N4CCN(CC)CC4)cn3)nc3ccsc23)c1` displayed a 50% growth inhibitory concentration (GI50) of at most 50 nM.

For `C=CC(=O)Nc1cccc(Oc2nc(Nc3ccc(C(=O)NCCN4CCCC4)cc3)nc3ccsc23)c1`, the GI50 is at most 50 nM.

For `C=CC(=O)Nc1cccc(Oc2nc(Nc3ccc(N4CCN(CCF)CC4)cc3)nc3ccsc23)c1`, the GI50 is at most 50 nM.

`C=CC(=O)Nc1cccc(Oc2nc(Nc3ccc(N4CCN(S(=O)(=O)CC)CC4)cc3)nc3ccsc23)c1` gave a GI50 of at most 50 nM.

The molecule `C=CC(=O)Nc1cccc(Oc2nc(Nc3ccc(OCCOC)cc3)nc3ccsc23)c1` yielded a GI50 of 50 to 100 nM.

On to `C=CC(=O)Nc1cccc(Oc2nc(Nc3ccc(N4CCN(CC(F)F)CC4)cc3)nc3ccsc23)c1`, for which the concentration for 50% growth inhibition (GI50) was at most 50 nM.

For `C=CC(=O)Nc1cccc(Oc2nc(Nc3ccc(N4CCN(C)CC4)cc3OC)nc3ccsc23)c1`, the GI50 fell in the range of 50 to 100 nM.

Molecule `C=CC(=O)Nc1cccc(Oc2nc(Nc3ccc(NC4CCN(C)CC4)c(F)c3)nc3ccsc23)c1` came in with a GI50 of at most 50 nM.

In the case of `C=CC(=O)Nc1cccc(Oc2nc(Nc3ccc(C(=O)N(C)C)cc3)nc3ccsc23)c1`, the GI50 was 50 to 100 nM.

The molecule `C=CC(=O)Nc1cccc(Oc2nc(Nc3ccc(C(=O)N4CCN(CC)CC4)cc3)nc3ccsc23)c1` showed a GI50 of at most 50 nM.

In turn, `C=CC(=O)Nc1cccc(Oc2nc(Nc3ccc(CCN4CCN(S(C)(=O)=O)CC4)cc3)nc3ccsc23)c1` had a GI50 of at most 50 nM.

On to `C=CC(=O)Nc1cccc(Oc2nc(Nc3ccc(C(=O)NC)cc3)nc3ccsc23)c1`, for which the GI50 lay within 50 to 100 nM.

Molecule `C=CC(=O)Nc1cccc(Oc2nc(Nc3ccc(N4CCC(N(C)C)CC4)cc3)nc3ccsc23)c1` yielded a GI50 of at most 50 nM.

Consider `C=CC(=O)Nc1cccc(Oc2nc(Nc3ccc(C=CCN4CCCCC4)cc3)nc3ccsc23)c1`, for which the GI50 is at most 50 nM.

`C=CC(=O)Nc1cccc(Oc2nc(Nc3ccc(S(=O)(=O)N4CCN(CC)CC4)cc3)nc3ccsc23)c1` gave a GI50 of at most 50 nM.

`C=CC(=O)Nc1cccc(Oc2nc(Nc3ccc(OCCN4CCOCC4)c(F)c3)nc3ccsc23)c1` registered a GI50 of 50 to 100 nM.

In turn, `C=CC(=O)Nc1cccc(Oc2nc(Nc3ccc(O)cc3)nc3ccsc23)c1` displayed a GI50 of 100 to 1000 nM.

In the case of `C=CC(=O)Nc1cccc(Oc2nc(Nc3ccc(C[S+](C)[O-])cc3)nc3ccsc23)c1` (stereo unspecified), the GI50 was at most 50 nM.

In turn, `C=CC(=O)Nc1cccc(Nc2nc(Nc3ccc(N4CCN(C(C)C)CC4)cc3)nc3ccsc23)c1` came in with a GI50 of at most 50 nM.

`C=CC(=O)Nc1cccc(Sc2nc(Nc3ccc(N4CCOCC4)c(F)c3)nc3ccsc23)c1` displayed a GI50 of at most 50 nM.

Consider `C=CC(=O)Nc1cccc(Oc2nc(Nc3ccc(CN4CCN(C)CC4)nc3)nc3ccsc23)c1`, for which the GI50 was at most 50 nM.

In turn, `C=CC(=O)Nc1cccc(Nc2nc(Nc3ccc(OCCN(C)C)cc3)nc3ccsc23)c1` returned a GI50 of at most 50 nM.

For `C=CC(=O)Nc1cccc(Nc2nc(Nc3ccc(CCN(C)C)cc3)nc3ccsc23)c1`, the GI50 was 50 to 100 nM.

Molecule `C=CC(=O)Nc1cccc(Oc2nc(Nc3ccc(N4CCC(N5CCCC5)CC4)c(Cl)c3)nc3ccsc23)c1` registered a GI50 of at most 50 nM.

Molecule `C=CC(=O)Nc1cccc(Oc2nc(Nc3ccc(N4CCC(N5CCN(CC)CC5)CC4)cc3)nc3ccsc23)c1` displayed a GI50 of at most 50 nM.

The molecule `C=CC(=O)Nc1cccc(Oc2nc(Nc3ccc(N4CCN(CCO)CC4)cc3)nc3ccsc23)c1` registered a GI50 of at most 50 nM.

The molecule `C=CC(=O)Nc1cccc(Nc2nc(Nc3ccc(C4CCN(C)CC4)cc3)nc3ccsc23)c1` registered a concentration for 50% growth inhibition (GI50) of at most 50 nM.

`C=CC(=O)Nc1cccc(Nc2nc(Nc3ccc(C4CCN(C)CC4)c(F)c3)nc3ccsc23)c1` returned a GI50 of at most 50 nM.

`C=CC(=O)Nc1cccc(Oc2nc(Nc3ccc(OCCN(C)C)cc3)nc3ccsc23)c1` returned a concentration for 50% growth inhibition (GI50) of at most 50 nM.

On to `C=CC(=O)Nc1cccc(Oc2nc(Nc3ccc(OCCN(C)C)c(F)c3)nc3ccsc23)c1`, for which the GI50 is at most 50 nM.

In turn, `C=CC(=O)Nc1cccc(Oc2nc(Nc3ccc(CS(C)(=O)=O)cc3)nc3ccsc23)c1` gave a GI50 of at most 50 nM.

Molecule `C=CC(=O)Nc1cccc(Oc2nc(Nc3ccc(C4CCCN(C)C4)cc3OC)nc3ccsc23)c1` (stereo unspecified) displayed a GI50 of at most 50 nM.

In turn, `C=CC(=O)Nc1cccc(Oc2nc(Nc3ccc(C4CCN(C)CC4)c(Cl)c3)nc3ccsc23)c1` returned a GI50 of 50 to 100 nM.

In turn, `C=CC(=O)Nc1cccc(Oc2nc(Nc3ccc(N4CCN(C)CC4)c(F)c3OC)nc3ccsc23)c1` came in with a GI50 of 50 to 100 nM.

For the molecule `C=CC(=O)Nc1cccc(Oc2nc(Nc3ccc(N4CCC(CN(C)C)CC4)cc3)nc3ccsc23)c1`, the GI50 is at most 50 nM.

In the case of `C=CC(=O)Nc1cccc(Oc2nc(Nc3ccc(OCCN(CC)CC)c(F)c3)nc3ccsc23)c1`, the GI50 was at most 50 nM.

`C=CC(=O)Nc1cccc(Oc2nc(Nc3ccc(N4CCC(N5CCOCC5)CC4)c(F)c3)nc3ccsc23)c1` came in with a GI50 of at most 50 nM.

Turning to `C=CC(=O)Nc1cccc(Oc2nc(Nc3ccc(C(C)=O)cc3)nc3ccsc23)c1`, the GI50 is at most 50 nM.

As to `C=CC(=O)Nc1cccc(Oc2nc(Nc3ccc(CN4CCN(C)CC4)c(F)c3)nc3ccsc23)c1`, the GI50 was at most 50 nM.

Turning to `C=CC(=O)Nc1cccc(Oc2nc(Nc3ccc(C4CCCN(C)C4)c(F)c3)nc3ccsc23)c1` (stereo unspecified), the GI50 is at most 50 nM.

In turn, `C=CC(=O)Nc1cccc(Oc2nc(Nc3ccc(N4CCOCC4)cc3)nc3ccsc23)c1` had a concentration for 50% growth inhibition (GI50) of 50 to 100 nM.

`C=CC(=O)Nc1cccc(Oc2nc(Nc3ccc(N4CCN(C)CC4)c(C)c3)nc3ccsc23)c1` came in with a GI50 of at most 50 nM.

For the molecule `C=CC(=O)Nc1cccc(Nc2nc(Nc3ccc(OCCCN(C)C)cc3)nc3ccsc23)c1`, the GI50 lay within 50 to 100 nM.

`C=CC(=O)Nc1cccc(Oc2nc(Nc3ccc(N4CCC(N5CCOCC5)CC4)cc3)nc3ccsc23)c1`: the GI50 is at most 50 nM.

Molecule `C=CC(=O)Nc1cccc(Oc2nc(Nc3ccc(CP(=O)(OC)OC)cc3)nc3ccsc23)c1` gave a GI50 of at most 50 nM.

For the molecule `C=CC(=O)Nc1cccc(Nc2nc(Nc3ccc(N4CCN(C)CC4)c(F)c3)nc3ccsc23)c1`, the GI50 is at most 50 nM.

On to `C=CC(=O)Nc1cccc(Oc2nc(Nc3ccc(N4CC[C@@H](n5ccnc5)C4)cc3)nc3ccsc23)c1`, for which the GI50 lay in the range of 50 to 100 nM.

Regarding `C=CC(=O)Nc1cccc(Oc2nc(Nc3ccc(N4CC5CC4CN5C)cc3)nc3ccsc23)c1` (stereo unspecified), the GI50 is 50 to 100 nM.

With `C=CC(=O)Nc1cccc(Oc2nc(Nc3ccc(C(=O)NC4CCN(C)CC4)c(Cl)c3)nc3ccsc23)c1`, the GI50 was at most 50 nM.

The molecule `C=CC(=O)Nc1cccc(Oc2nc(Nc3ccc(C4CCN(CC)CC4)cc3)nc3ccsc23)c1` came in with a GI50 of at most 50 nM.

As for `C=CC(=O)Nc1cccc(Oc2nc(Nc3ccc(NCCN(C)C)c(F)c3)nc3ccsc23)c1`, the GI50 is at most 50 nM.

`C=CC(=O)Nc1cccc(Oc2nc(Nc3ccc(N4CCC(N5CCOCC5)CC4)c(Cl)c3)nc3ccsc23)c1` yielded a GI50 of at most 50 nM.

On to `C=CC(=O)Nc1cccc(Oc2nc(Nc3ccc(CN4CCN(C5CCN(C)CC5)CC4)cc3)nc3ccsc23)c1`, for which the GI50 is at most 50 nM.
